{
  "source": "patent US8435928B2",
  "about": "“Herbicidal composition” (Ishihara Sangyo Kaisha, Ltd., priority 2007, dated 2013)",
  "key": {"[1]": {"system": "crabgrass", "assay": "Test Example 7: foliar application of compound No. 2-1 wettable powder with surfactant, crabgrass", "assay_type": "in vivo, Digitaria sanguinalis L.", "settings": "15 g a.i./ha wettable powder, 21st day", "excerpt": "(§1) On the 21st day after the application, the state of growth of the plants was visually observed (growth inhibition rate (%)=0 (the same as the untreated plot) to 100 (complete kill)), and the results as shown in Tables b1 and b2 were obtained.\n(§2) Upland field soil was put into a 1/1,000,000 ha pot, and seeds of crabgrass were sown and grown in a greenhouse. When crabgrass reached 4.0 to 5.0 leaf stage, a prescribed amount (15 g a.i./ha) of a wettable powder comprising compound No. 2-1 as an active ingredient, prepared in accordance with the above Example 1, was diluted with water corresponding to 300 L/ha (containing 0.05 vol % of a surfactant containing the POA alkyl ether phosphate), followed by foliar application. Further, for comparison, foliar application was carried out in the same manner by using a silicon surfactant (tradename: SILWETT L-77) at a concentration of 0.1 vol % instead of the above surfactant.\nOn the 21st day after the application, the state of growth of the plant was evaluated in the same manner as in Test Example 1, and the results as shown in Table b10 were obtained."}, "[2]": {"system": "crabgrass", "assay": "Test Example 8: foliar application of compound No. 2-6 wettable powder with surfactant, crabgrass", "assay_type": "in vivo, Digitaria sanguinalis L.", "settings": "15 g a.i./ha wettable powder, 21st day", "excerpt": "as §1\n(§3) Upland field soil was put into a 1/1,000,000 ha pot, and seeds of bamyardgrass (Echinochloa crus-galli L) and crabgrass were respectively sown and grown in a greenhouse. When barnyardgrass reached 4.0 to 4.5 leaf stage and crabgrass reached 4.0 to 5.0 leaf stage, a prescribed amount (15 g a.i./ha) of a wettable powder comprising compound No. 2-6 as an active ingredient, prepared in accordance with the above Example 1, was diluted with water corresponding to 300 L/ha (containing 0.05 vol % of a surfactant containing the POA alkyl ether phosphate), followed by foliar application. Further, for comparison, foliar application was carried out in the same manner by using SILWETT L-77 (tradename.) at a concentration of 0.1 vol % instead of the above surfactant.\n(§4) On the 21st day after the application, the state of growth of the plants was evaluated in the same manner as in Test Example 1, and the results as shown in Tables b11 and b12 were obtained."}, "[3]": {"system": "bamyardgrass (Echinochloa crus-galli L)", "assay": "Test Example 8: foliar application of compound No. 2-6 wettable powder with surfactant, barnyardgrass", "assay_type": "in vivo", "settings": "15 g a.i./ha wettable powder, 21st day", "excerpt": "as §1, §3, §4"}, "[4]": {"system": "bamyardgrass (Echinochloa crus-galli L)", "assay": "Test Example 10: foliar application of compound No. 2-185 wettable powder with surfactant, barnyardgrass", "assay_type": "in vivo", "settings": "15 g a.i./ha wettable powder, 21st day", "excerpt": "as §1, §3\nOn the 21st day after the application, the state of growth of the plants was evaluated in the same manner as in Test Example 1, and the results as shown in Tables b11 and b12 were obtained. […]"}, "[5]": {"system": "crabgrass", "assay": "Test Example 10: foliar application of compound No. 2-185 wettable powder with surfactant, crabgrass", "assay_type": "in vivo, Digitaria sanguinalis L.", "settings": "15 g a.i./ha wettable powder, 21st day", "excerpt": "as §1, §3, §4\nThe results as shown in Tables b14 and b15 were obtained in the same manner as in the above Test Example 8 except that a prescribed amount (15 g a.i./ha) of a wettable powder comprising compound No. 2-185 as an active ingredient, prepared in accordance with the above Example 1, was used."}, "[6]": {"system": "barnyardgrass", "assay": "Test Example 13: foliar application of compound No. 5-1 wettable powder with surfactant, barnyardgrass", "assay_type": "in vivo, Echinochloa crus-galli L", "settings": "31 g a.i./ha wettable powder, 21st day", "excerpt": "as §1\nas §3, with “bamyardgrass” for “bamyardgrass (Echinochloa crus-galli L) and crabgrass”, “were” for “were respectively”, “leaf” for “leaf stage and crabgrass reached 4.0 to 5.0 leaf”, “(31” for “(15”, “5-1” for “2-6”, “(tradename)” for “(tradename.)”\nOn the 21st day after the application, the state of growth of the plant was evaluated in the same manner as in Test Example 1, and the results as shown in Table b18 were obtained."}, "[7]": {"system": "crabgrass", "assay": "Test Example 5: foliar application of compound No. 3-31 wettable powder with surfactant, crabgrass", "assay_type": "in vivo, Digitaria sanguinalis L.", "settings": "foliar application at 4.5 to 5.0 leaf stage, visual, 21st day, 0 = same as untreated, 100 = complete kill", "excerpt": "as §1\nUpland field soil was put into a 1/1,000,000 ha pot, and seeds of crabgrass were sown and grown in a greenhouse. When crabgrass reached 4.5 to 5.0 leaf stage, a prescribed amount (30 g a.i./ha) of a water-based suspension concentrate comprising compound No. 238 as an active ingredient, prepared in accordance with the above Example 6, was diluted with water corresponding to 300 L/ha (containing 0.05 vol % of a surfactant containing the POA alkyl ether phosphate), followed by foliar application. Further, for comparison, foliar application was carried out in the same manner by using CITOWETT (tradename) at a concentration of 0.3 vol %, instead of the above surfactant.\nOn the 21st day after the application, the state of growth of the plant was evaluated in the same manner as in Test Example 1, and the results as shown in Table b5 were obtained.\nThe results as shown in Table b8 were obtained in the same manner as in the above Test Example 3 except that a prescribed amount (60 g a.i./ha) of a wettable powder comprising compound No. 3-31 as an active ingredient, prepared in accordance with the above Example 5, was used."}, "[8]": {"system": "crabgrass", "assay": "Test Example 12: foliar application of compound No. 4-320 wettable powder with surfactant, crabgrass", "assay_type": "in vivo, Digitaria sanguinalis L.", "settings": "15 g a.i./ha wettable powder, 21st day", "excerpt": "as §1\nas §2, with “4-3” for “2-1”, “using” for “using a silicon surfactant (tradename:”, “L-77 (tradename)” for “L-77)”\nOn the 21st day after the application, the state of growth of the plant was evaluated in the same manner as in Test Example 1, and the results as shown in Table b16 were obtained.\nThe results as shown in Tables b17 were obtained in the same manner as in the above Test Example 11 except that a prescribed amount (15 g a.i./ha) of a wettable powder comprising compound No. 4-320 as an active ingredient, prepared in accordance with the above Example 1, was used."}, "[9]": {"settings": "surfactant PHOSPHANOL RS-710 0.05 vol %, present invention"}, "[10]": {"settings": "surfactant PLYSURF A219B 0.05 vol %, present invention"}, "[11]": {"settings": "surfactant SILWETT L-77 0.1 vol %, comparison"}, "[12]": {"settings": "surfactant ADECA COL PS-440E 0.05 vol %, present invention"}, "[13]": {"settings": "surfactant NIKKOL DDP-8 0.05 vol %, present invention"}, "[14]": {"settings": "surfactant NIKKOL TDP-8 0.05 vol %, present invention"}, "[15]": {"settings": "surfactant PHOSPHANOL ML-240 0.05 vol %, present invention"}, "[16]": {"settings": "surfactant PHOSPHOLAN PS-236 0.05 vol %, present invention"}},
  "data": [
    {"smiles": "COC(=O)c1c(S(C)(=O)=O)ccc(C(=O)c2cnn(C)c2O)c1C", "note": "[2-1]", "values": [
      {"measurement": "Growth inhibition rate (%) of crabgrass", "setting": "[1]; [9]", "result": 75, "unit": "%"},
      {"measurement": "Growth inhibition rate (%) of crabgrass", "setting": "[1]; [10]", "result": 70, "unit": "%"},
      {"measurement": "Growth inhibition rate (%) of crabgrass", "setting": "[1]; [11]", "result": 10, "unit": "%"}
    ]},
    {"smiles": "CCn1ncc(C(=O)c2ccc(S(C)(=O)=O)c(OCCOC)c2C)c1O", "note": "[2-6]", "values": [
      {"measurement": "Growth inhibition rate (%) of crabgrass", "setting": "[2]; [12]", "result": 75, "unit": "%"},
      {"measurement": "Growth inhibition rate (%) of crabgrass", "setting": "[2]; [13]", "result": 70, "unit": "%"},
      {"measurement": "Growth inhibition rate (%) of crabgrass", "setting": "[2]; [14]", "result": 73, "unit": "%"},
      {"measurement": "Growth inhibition rate (%) of crabgrass", "setting": "[2]; [15]", "result": 85, "unit": "%"},
      {"measurement": "Growth inhibition rate (%) of crabgrass", "setting": "[2]; [9]", "result": 70, "unit": "%"},
      {"measurement": "Growth inhibition rate (%) of crabgrass", "setting": "[2]; [10]", "result": 78, "unit": "%"},
      {"measurement": "Growth inhibition rate (%) of crabgrass", "setting": "[2]; [11]", "result": 40, "unit": "%"},
      {"measurement": "Growth inhibition rate (%) of barnyardgrass", "setting": "[3]; [16]", "result": 95, "unit": "%"},
      {"measurement": "Growth inhibition rate (%) of barnyardgrass", "setting": "[3]; [11]", "result": 10, "unit": "%"}
    ]},
    {"smiles": "COCc1c(S(C)(=O)=O)ccc(C(=O)c2cnn(C)c2O)c1C", "note": "[2-185]", "values": [
      {"measurement": "Growth inhibition rate (%) of barnyardgrass", "setting": "[4]; [16]", "result": 80, "unit": "%"},
      {"measurement": "Growth inhibition rate (%) of barnyardgrass", "setting": "[4]; [11]", "result": 0, "unit": "%"},
      {"measurement": "Growth inhibition rate (%) of crabgrass", "setting": "[5]; [13]", "result": 70, "unit": "%"},
      {"measurement": "Growth inhibition rate (%) of crabgrass", "setting": "[5]; [14]", "result": 70, "unit": "%"},
      {"measurement": "Growth inhibition rate (%) of crabgrass", "setting": "[5]; [15]", "result": 70, "unit": "%"},
      {"measurement": "Growth inhibition rate (%) of crabgrass", "setting": "[5]; [9]", "result": 73, "unit": "%"},
      {"measurement": "Growth inhibition rate (%) of crabgrass", "setting": "[5]; [10]", "result": 70, "unit": "%"},
      {"measurement": "Growth inhibition rate (%) of crabgrass", "setting": "[5]; [11]", "result": 20, "unit": "%"}
    ]},
    {"smiles": "COCCOCc1nc(C(F)(F)F)ccc1C(=O)C1C(=O)C2CCC(C2)C1=O", "note": "(stereo not drawn) [5-1]", "values": [
      {"measurement": "Growth inhibition rate (%) of barnyardgrass", "setting": "[6]; [12]", "result": 85, "unit": "%"},
      {"measurement": "Growth inhibition rate (%) of barnyardgrass", "setting": "[6]; [11]", "result": 70, "unit": "%"}
    ]},
    {"smiles": "CS(=O)(=O)c1ccc(C(=O)C2C(=O)CCCC2=O)c(Cl)c1COCC(F)(F)F", "note": "[Compound No. 3-31]", "values": [
      {"measurement": "Growth inhibition rate (%) of crabgrass", "setting": "[7]; comparison: 60 g a.i./ha wettable powder in 300 L/ha water with surfactant CITOWETT 0.3 vol %", "result": 20, "unit": "%"},
      {"measurement": "Growth inhibition rate (%) of crabgrass", "setting": "[7]; the present invention: 60 g a.i./ha wettable powder in 300 L/ha water with surfactant NIKKOL DDP-8 0.05 vol %", "result": 80, "unit": "%"}
    ]},
    {"smiles": "CCn1ncc(C(=O)c2ccc(S(C)(=O)=O)c(OCCOC)c2C)c1OC(C)OC(=O)OC", "note": "(stereo not drawn) [Compound No. 4-320, 1-(1-ethyl-4-(3-(2-methoxyethoxy)-2-methyl-4-(methylsulfonyl)benzoyl)-1H-pyrazol-5-yloxy)ethyl methyl carbonate]", "values": [
      {"measurement": "Growth inhibition rate (%) of crabgrass", "setting": "[8]; [13]", "result": 90, "unit": "%"},
      {"measurement": "Growth inhibition rate (%) of crabgrass", "setting": "[8]; [16]", "result": 90, "unit": "%"},
      {"measurement": "Growth inhibition rate (%) of crabgrass", "setting": "[8]; [11]", "result": 88, "unit": "%"}
    ]}
  ]
}
